In ChEMBL document CHEMBL4477246, “New small molecule inhibitors of histone methyl transferase DOT1L with a nitrile as a non-traditional replacement for heavy halogen atoms” (Bioorg Med Chem Lett, 2016) one finds IC50 and inhibition data, which are given here for 10 compounds.

The target of experiment [1] is Protein arginine N-methyltransferase 5 (Homo sapiens, UniProt O14744). Briefly: Inhibition of PRMT5 (unknown origin).
Experiment [2] concerns the target Protein arginine N-methyltransferase 3 (Homo sapiens, UniProt O60678). Briefly: Inhibition of PRMT3 (unknown origin).
Experiment [3] deals with DNA (cytosine-5)-methyltransferase 1 (Homo sapiens, UniProt P26358). Briefly: Inhibition of DNMT1 (unknown origin).
The target of experiment [4] is Histone-lysine N-methyltransferase EZH2 (Homo sapiens, UniProt Q15910). The experiment in a line: Inhibition of EZH2 (unknown origin).
Experiment [5] deals with Histone-lysine N-methyltransferase SUV39H2 (Homo sapiens, UniProt Q9H5I1). Briefly: Inhibition of SUV39H2 (unknown origin).
In experiment [6] the target is T1, Histone-lysine N-methyltransferase SETD7 (Homo sapiens, UniProt Q8WTS6).
T1 sequence (Q8WTS6 whole entry): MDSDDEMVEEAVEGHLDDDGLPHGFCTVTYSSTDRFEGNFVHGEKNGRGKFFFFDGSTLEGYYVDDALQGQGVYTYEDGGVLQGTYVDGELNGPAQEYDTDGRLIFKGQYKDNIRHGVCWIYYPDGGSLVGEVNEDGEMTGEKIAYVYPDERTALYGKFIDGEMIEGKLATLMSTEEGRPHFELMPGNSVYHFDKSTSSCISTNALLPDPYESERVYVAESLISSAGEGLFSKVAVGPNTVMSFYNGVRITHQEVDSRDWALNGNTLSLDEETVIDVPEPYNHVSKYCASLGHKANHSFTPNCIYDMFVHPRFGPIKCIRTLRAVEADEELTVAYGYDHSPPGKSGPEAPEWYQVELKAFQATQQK
The experiment in a line: Inhibition of SETD7 (unknown origin).

For experiment [7], the target named is T2, Histone-lysine N-methyltransferase EHMT2 (Homo sapiens, UniProt Q96KQ7).
T2 sequence (Q96KQ7 whole entry): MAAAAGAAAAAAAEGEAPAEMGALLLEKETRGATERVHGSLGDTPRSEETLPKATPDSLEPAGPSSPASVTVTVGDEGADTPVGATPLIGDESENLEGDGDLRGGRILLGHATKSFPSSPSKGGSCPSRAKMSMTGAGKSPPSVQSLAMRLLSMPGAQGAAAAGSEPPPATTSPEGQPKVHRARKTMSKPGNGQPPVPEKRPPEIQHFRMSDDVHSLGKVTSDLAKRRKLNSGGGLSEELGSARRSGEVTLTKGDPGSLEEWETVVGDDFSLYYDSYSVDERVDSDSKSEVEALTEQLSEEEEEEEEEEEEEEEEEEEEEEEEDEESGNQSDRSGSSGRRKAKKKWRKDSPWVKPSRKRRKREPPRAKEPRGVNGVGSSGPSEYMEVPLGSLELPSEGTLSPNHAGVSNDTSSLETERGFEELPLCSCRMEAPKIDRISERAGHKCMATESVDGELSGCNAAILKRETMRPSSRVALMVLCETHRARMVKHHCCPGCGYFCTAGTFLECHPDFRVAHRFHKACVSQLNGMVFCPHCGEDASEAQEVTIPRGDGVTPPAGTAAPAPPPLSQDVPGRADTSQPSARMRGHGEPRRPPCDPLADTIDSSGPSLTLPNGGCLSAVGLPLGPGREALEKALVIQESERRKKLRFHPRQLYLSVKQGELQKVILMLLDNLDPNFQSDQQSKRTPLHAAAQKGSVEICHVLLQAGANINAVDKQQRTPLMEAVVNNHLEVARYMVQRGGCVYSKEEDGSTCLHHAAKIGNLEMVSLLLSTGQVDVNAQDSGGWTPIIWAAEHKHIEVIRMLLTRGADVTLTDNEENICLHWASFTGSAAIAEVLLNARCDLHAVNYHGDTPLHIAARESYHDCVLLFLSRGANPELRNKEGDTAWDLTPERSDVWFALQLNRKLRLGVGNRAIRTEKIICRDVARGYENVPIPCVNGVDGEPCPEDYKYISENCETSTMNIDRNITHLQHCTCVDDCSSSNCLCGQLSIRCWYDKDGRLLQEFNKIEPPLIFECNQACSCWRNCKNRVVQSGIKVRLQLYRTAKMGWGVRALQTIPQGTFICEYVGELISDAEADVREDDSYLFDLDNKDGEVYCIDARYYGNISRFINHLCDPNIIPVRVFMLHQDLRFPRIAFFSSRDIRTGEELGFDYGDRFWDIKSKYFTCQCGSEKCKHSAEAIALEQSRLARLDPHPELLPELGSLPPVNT
Briefly: Inhibition of G9a (unknown origin).

For experiment [8], the target named is T3, Histone-lysine N-methyltransferase, H3 lysine-79 specific (Homo sapiens, UniProt Q8TEK3). Briefly: Inhibition of DOT1L (unknown origin) at 250 uM using chicken nucleosome as substrate in presence of [3H]SAM incubated for 1 hr by TopCount method.
Target sequence in this assay (Q8TEK3 whole entry, looked up): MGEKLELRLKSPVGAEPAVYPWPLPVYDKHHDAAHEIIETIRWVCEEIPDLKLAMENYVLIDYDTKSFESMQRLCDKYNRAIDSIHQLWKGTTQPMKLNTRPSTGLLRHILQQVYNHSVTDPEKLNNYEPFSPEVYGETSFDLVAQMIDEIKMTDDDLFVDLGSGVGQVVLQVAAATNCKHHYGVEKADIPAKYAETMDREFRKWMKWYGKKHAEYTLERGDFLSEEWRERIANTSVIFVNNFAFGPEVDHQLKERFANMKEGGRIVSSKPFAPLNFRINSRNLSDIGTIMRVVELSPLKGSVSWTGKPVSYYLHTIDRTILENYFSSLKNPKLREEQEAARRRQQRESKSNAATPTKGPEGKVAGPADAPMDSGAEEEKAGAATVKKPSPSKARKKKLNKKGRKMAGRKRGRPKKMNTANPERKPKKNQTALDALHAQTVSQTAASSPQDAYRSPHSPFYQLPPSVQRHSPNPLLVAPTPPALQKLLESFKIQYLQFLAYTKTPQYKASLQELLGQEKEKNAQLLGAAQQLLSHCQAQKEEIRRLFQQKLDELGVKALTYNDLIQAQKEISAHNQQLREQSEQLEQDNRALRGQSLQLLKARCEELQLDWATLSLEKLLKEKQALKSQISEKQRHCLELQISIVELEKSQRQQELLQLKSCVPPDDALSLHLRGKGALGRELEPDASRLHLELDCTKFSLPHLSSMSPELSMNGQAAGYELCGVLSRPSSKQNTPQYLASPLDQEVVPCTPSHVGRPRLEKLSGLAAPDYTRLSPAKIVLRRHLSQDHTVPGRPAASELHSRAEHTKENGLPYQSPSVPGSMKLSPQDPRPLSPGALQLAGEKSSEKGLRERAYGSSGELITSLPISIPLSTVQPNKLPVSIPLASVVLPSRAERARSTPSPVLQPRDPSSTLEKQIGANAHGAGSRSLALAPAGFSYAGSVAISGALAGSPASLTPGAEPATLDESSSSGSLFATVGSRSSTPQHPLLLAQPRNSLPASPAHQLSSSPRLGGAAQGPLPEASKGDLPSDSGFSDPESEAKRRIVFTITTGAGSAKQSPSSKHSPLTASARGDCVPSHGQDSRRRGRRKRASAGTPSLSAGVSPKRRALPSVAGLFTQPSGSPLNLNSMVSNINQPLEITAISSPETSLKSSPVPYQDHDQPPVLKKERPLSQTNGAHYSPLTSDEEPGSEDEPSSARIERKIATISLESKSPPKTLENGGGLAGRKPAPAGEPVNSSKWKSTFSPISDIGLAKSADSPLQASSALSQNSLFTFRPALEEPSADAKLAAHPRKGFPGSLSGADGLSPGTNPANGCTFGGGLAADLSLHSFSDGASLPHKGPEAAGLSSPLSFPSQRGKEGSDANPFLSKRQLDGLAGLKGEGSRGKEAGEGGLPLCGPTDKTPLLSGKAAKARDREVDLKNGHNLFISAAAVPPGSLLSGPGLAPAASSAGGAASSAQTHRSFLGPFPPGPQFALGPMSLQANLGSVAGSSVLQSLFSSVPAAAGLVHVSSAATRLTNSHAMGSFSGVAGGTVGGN
For experiment [9], the target named is T3, Histone-lysine N-methyltransferase, H3 lysine-79 specific. Briefly: Inhibition of DOT1L (unknown origin) using chicken nucleosome as substrate in presence of [3H]SAM incubated for 1 hr by TopCount method.
Target sequence in this assay (Q8TEK3 whole entry): as the sequence (Q8TEK3 whole entry, looked up) above

Chain of Protein arginine N-methyltransferase 3 (O60678 whole entry): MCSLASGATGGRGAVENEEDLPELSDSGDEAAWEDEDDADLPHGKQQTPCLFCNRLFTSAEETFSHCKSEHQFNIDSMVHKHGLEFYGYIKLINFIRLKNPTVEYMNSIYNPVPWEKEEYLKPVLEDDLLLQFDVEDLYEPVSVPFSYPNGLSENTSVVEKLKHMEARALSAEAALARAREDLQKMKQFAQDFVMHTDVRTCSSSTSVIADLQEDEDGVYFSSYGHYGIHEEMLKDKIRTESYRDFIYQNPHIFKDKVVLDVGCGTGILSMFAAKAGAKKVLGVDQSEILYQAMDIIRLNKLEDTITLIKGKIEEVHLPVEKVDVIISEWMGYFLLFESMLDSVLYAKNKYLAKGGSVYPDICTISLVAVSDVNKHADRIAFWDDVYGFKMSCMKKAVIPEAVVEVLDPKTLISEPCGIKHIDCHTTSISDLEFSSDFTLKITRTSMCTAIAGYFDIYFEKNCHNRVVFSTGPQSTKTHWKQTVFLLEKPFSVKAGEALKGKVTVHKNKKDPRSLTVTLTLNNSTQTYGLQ
Chain of Histone-lysine N-methyltransferase SUV39H2 (Q9H5I1 whole entry): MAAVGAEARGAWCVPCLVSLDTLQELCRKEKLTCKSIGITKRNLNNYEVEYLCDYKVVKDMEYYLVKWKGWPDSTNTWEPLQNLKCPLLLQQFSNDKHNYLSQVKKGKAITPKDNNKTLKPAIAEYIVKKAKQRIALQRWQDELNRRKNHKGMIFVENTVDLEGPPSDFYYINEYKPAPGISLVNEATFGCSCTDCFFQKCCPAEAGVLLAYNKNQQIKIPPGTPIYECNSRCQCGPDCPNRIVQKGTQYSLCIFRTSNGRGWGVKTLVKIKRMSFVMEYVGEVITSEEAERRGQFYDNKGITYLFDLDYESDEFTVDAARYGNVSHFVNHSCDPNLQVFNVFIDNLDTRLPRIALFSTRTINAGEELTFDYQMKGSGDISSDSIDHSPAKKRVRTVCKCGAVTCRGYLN
Chain of DNA (cytosine-5)-methyltransferase 1 (P26358 whole entry): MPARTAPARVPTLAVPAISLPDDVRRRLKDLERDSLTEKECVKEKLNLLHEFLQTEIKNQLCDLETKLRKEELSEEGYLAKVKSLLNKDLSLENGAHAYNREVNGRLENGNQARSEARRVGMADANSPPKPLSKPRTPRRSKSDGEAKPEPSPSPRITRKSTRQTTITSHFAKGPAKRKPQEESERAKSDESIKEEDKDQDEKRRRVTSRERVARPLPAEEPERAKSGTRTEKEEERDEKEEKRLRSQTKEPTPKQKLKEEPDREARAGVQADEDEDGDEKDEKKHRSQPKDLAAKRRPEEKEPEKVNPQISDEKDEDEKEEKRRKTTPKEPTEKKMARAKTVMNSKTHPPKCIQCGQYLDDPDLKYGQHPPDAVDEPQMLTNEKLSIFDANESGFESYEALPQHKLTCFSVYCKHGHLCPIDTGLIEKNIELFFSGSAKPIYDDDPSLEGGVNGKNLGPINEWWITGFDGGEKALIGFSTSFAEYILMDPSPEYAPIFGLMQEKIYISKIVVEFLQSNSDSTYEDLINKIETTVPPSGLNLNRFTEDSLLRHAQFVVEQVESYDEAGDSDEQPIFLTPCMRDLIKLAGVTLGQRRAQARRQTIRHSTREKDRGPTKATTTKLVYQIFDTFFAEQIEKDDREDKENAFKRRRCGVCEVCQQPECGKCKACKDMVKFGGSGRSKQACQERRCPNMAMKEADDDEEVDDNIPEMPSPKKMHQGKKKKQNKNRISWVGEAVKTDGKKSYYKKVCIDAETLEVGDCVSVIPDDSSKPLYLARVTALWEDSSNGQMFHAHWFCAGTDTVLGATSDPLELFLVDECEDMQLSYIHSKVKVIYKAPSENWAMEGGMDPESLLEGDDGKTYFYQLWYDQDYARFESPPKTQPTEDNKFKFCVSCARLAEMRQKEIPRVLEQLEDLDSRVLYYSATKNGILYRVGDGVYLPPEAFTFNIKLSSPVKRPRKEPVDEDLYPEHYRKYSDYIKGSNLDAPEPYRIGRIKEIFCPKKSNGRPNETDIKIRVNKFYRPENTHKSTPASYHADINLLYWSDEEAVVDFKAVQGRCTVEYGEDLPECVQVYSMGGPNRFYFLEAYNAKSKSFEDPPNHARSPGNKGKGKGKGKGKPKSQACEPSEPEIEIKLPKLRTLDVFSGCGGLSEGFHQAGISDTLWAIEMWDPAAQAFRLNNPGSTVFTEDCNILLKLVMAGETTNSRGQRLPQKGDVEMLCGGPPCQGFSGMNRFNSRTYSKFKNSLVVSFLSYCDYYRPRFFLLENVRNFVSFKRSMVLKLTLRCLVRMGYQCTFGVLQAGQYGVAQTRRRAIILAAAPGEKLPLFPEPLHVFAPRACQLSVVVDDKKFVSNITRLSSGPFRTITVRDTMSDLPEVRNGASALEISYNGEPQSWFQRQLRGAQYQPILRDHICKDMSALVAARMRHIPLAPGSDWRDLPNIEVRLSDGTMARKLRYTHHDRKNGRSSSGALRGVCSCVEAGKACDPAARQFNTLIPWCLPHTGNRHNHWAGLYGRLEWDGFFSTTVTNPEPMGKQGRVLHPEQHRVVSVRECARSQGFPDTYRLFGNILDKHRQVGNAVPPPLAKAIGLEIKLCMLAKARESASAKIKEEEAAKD
Chain of Protein arginine N-methyltransferase 5 (O14744 whole entry): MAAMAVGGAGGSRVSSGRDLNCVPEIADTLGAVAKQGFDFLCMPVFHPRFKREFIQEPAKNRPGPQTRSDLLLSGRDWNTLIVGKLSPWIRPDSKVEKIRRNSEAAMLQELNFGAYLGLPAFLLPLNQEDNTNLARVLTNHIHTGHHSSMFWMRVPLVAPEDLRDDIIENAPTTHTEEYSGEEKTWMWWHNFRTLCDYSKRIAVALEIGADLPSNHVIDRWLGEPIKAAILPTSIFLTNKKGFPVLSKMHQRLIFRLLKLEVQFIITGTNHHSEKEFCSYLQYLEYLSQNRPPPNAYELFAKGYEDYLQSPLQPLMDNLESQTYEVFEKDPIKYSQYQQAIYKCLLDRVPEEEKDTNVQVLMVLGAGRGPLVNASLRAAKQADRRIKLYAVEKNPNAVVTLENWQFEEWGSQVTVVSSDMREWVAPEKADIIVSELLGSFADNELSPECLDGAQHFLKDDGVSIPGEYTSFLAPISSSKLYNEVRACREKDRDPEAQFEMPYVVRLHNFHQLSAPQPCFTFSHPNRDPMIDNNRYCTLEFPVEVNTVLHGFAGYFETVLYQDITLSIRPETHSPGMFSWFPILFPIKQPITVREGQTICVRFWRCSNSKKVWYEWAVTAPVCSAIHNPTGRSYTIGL

In the case of `N#Cc1cn([C@@H]2O[C@H](CSCC[C@H](N)C(=O)O)[C@@H](O)[C@H]2O)c2ncnc(N)c12`, the half-maximal inhibitory concentration (IC50) was 2.4 µM in [1]; 0.87 µM in experiment [2]; 0.15 µM in experiment [3]; “Not Active” in experiment [4]; “Not Active” in experiment [5]; “Not Active” in experiment [6]. Also, the half-inhibitory concentration (IC50) in [7] came to 99 µM.
`COc1ccc(Cc2cn([C@@H]3O[C@H](CO)[C@@H](O)[C@H]3O)c3ncnc(N)c23)cc1`: the inhibition in experiment [8] amounted to 42%.
As to `Nc1ncnc2c1c(F)cn2[C@@H]1O[C@H](CO)[C@@H](O)[C@H]1O`, in experiment [9], the IC50 stood at 200 µM.
Turning to `N#Cc1cn([C@@H]2O[C@H](CO)[C@@H](O)[C@H]2O)c2ncnc(N)c12` [TOYOCAMYCIN], in [9], the IC50 came to 44 µM.
For `Nc1ncnc2c1c(-c1ncco1)cn2[C@@H]1O[C@H](CO)[C@@H](O)[C@H]1O`, in experiment [9], the IC50 came to 43 µM.
For `N#Cc1c(Br)n([C@@H]2O[C@H](CO)[C@@H](O)[C@H]2O)c2ncnc(N)c12`, in [9], the IC50 amounted to 200 µM.
Consider `Nc1ncnc2c1c(I)nn2[C@@H]1O[C@H](CO)[C@@H](O)[C@H]1O`, for which the half-maximal inhibitory concentration (IC50) in experiment [9] stood at 22 µM.
With `Nc1ncnc2c1ncn2[C@@H]1O[C@H](CSCC[C@H](N)C(=O)O)[C@@H](O)[C@H]1O` [S-ADENOSYLHOMOCYSTEINE], the concentration for half-maximal inhibition (IC50) in experiment [2] is 2 µM; in experiment [5] (read-out: IC50), 22 µM; in [6] (read-out: IC50), 47 µM.
Consider `C#Cc1cn([C@@H]2O[C@H](CO)[C@@H](O)[C@H]2O)c2ncnc(N)c12`, for which the IC50 in [9] was 41 µM.
As to `NC(=O)c1cn([C@@H]2O[C@H](CO)[C@@H](O)[C@H]2O)c2ncnc(N)c12` [SANGIVAMYCIN], the IC50 in [9] was 26 µM.
